The text below walks through data of patent US20250041306A1, “TARGETED PROTEASE DEGRADATION (TED) PLATFORM” (EUBULUS BIOTHERAPEUTICS INC., priority 2021, published 2025).

Holding throughout (format): cell-based
Test [1] relates to Human Colon Cancer HT-29. In words: Cell proliferation experiment (Alarm blue), HT-29. Conditions: HT-29 cells, 72 h culture, read-out: Anti cell proliferative activity EC50, HT-29. The method, then:
(§1) The cells were cultured in conventional ways, and the cells should be passed for at least 2 generations before plating. Cells at the logarithmic growth phase were collected, prepared into single cell suspensions and counted. The concentration of cells was adjusted to desired concentration, and cells were inoculated into a 96-well cell culture plate at 100 μl per well. 100 μL of complete medium of the test compound were added to each well, 2 replicate wells for each concentration were set up, and diluted with a 5-fold gradient, and continued to culture for 72 h. All cells were subjected to EC50 test for corresponding samples.
(§2) The fluorescence intensity of each well was detected using the Alarm blue method, and IC50 was calculated.
(§3) IC50 was calculated according to the following formula:
(§4) [formula] • wherein Min, Max and Slope represent the minimum, maximum and slope respectively.

The test system of test [2] is human gastric carcinoma cells N87. Kind of test: Cell proliferation experiment (Alarm blue), N87. Conditions: N87 cells, 72 h culture, read-out: Anti cell proliferative activity EC50, N87. The method, then: as §1, §2, §3, §4
Test [3] relates to Human Small Cell Lung Cancer NCI-H82. In words: Cell proliferation experiment (Alarm blue), H82. As to conditions: H82 cells, 72 h culture, read-out: Anti cell proliferative activity EC50, H82. The method, then: as §1, §2, §3, §4
Test [4] relates to Human Small Cell Lung Cancer H69. In words: Cell proliferation experiment (Alarm blue), H69. Conditions: H69 cells, 72 h culture, read-out: Anti cell proliferative activity EC50, H69. The method, then:
as §1, §2, §3, §4

In test [5] the test system is Human Colon Cancer cells Colo205. In words: Cell proliferation experiment (Alarm blue), Colo205. Conditions: Colo205 cells, 72 h culture, read-out: Anti cell proliferative activity EC50, Colo205. As to the method: as §1, §2, §3, §4

Where two headings read alike, the source gives them in different places.

For orientation: EC50 means the concentration at which the effect is half-maximal. Turning to `NC(=O)c1ccccc1Nc1nc(Nc2ccc(N3CCN(C(=O)N[C@H]4C[C@@H](NCC#Cc5ccc6c(c5)CN(C5CCC(=O)NC5=O)C6=O)C4)CC3)cc2)ncc1Cl` (stereo partly drawn) [UB-181258], the EC50 turned out to be 401 nM in test [1] (Homo sapiens); 24.6 nM in test [2] (Homo sapiens, 72 h); 23.8 nM in test [3] (Homo sapiens, NCI-H82, 72 h); 31.3 nM in test [4] (Homo sapiens, NCI-H69); 37.7 nM in test [5] (Homo sapiens, COLO 205, 72 h).
The like results for `NC(=O)c1ccccc1Nc1nc(Nc2ccc(N3CCN(C(=O)N[C@H]4C[C@@H](NCCC#Cc5ccc6c(c5)CN(C5CCC(=O)NC5=O)C6=O)C4)CC3)cc2)ncc1Cl` (stereo partly drawn) [UB-181259] were, in that order, 194 nM, 111 nM, 20.9 nM, 19.1 nM and 33.9 nM.
On to `CNC(=O)c1ccccc1Nc1nc(Nc2ccc(N3CCN(C(=O)NC4CCC(N(CCC#Cc5ccc6c(c5)CN(C5CCC(=O)NC5=O)C6=O)C(=O)OCc5ccc(NC(=O)[C@H](CC(N)=O)NC(=O)[C@H](C)NC(=O)[C@H](C)NC(=O)CCCCCN6C(=O)CC(SC[C@H](NC(=O)CC[C@H](NC(=O)c7ccc(NCc8cnc9nc(N)[nH]c(=O)c9n8)cc7)C(=O)O)C(=O)N[C@H](Cc7ccccc7)C(=O)N[C@H]7CSSC[C@@H](C(=O)N[C@H](CO)[C@@H](C)O)NC(=O)[C@H]([C@@H](C)O)NC(=O)[C@H](CCCCN)NC(=O)[C@@H](Cc8c[nH]c9ccccc89)NC(=O)[C@H](Cc8ccccc8)NC7=O)C6=O)cc5)CC4)CC3)cc2)ncc1Cl` (stereo partly drawn) [UB-181263], for which the concentration giving a half-maximal response (EC50) was over 1000 nM in test [1]; over 1000 nM in test [2]; 53 nM in test [3]; 192 nM in test [4]; 9.1 nM in test [5].
Consider `CNC(=O)c1ccccc1Nc1nc(Nc2ccc(N3CCN(C(=O)N[C@H]4CC[C@@H](N(CCC#Cc5ccc6c(c5)CN(C5CCC(=O)NC5=O)C6=O)C(=O)OC(C)C(C)SSC[C@H](NC(=O)CC[C@H](NC(=O)c5ccc(NCc6cnc7nc(N)[nH]c(=O)c7n6)cc5)C(=O)O)C(=O)N[C@H](Cc5ccccc5)C(=O)N[C@H]5CSSC[C@@H](C(=O)N[C@H](CO)[C@@H](C)O)NC(=O)[C@H]([C@@H](C)O)NC(=O)[C@H](CCCCN)NC(=O)[C@@H](Cc6c[nH]c7ccccc67)NC(=O)[C@H](Cc6ccccc6)NC5=O)CC4)CC3)cc2)ncc1Cl` (stereo partly drawn) [UB-181266], for which the EC50 in test [1] is over 1000 nM; in test [2] it was over 1000 nM; in test [3], 152 nM; in test [4], over 1000 nM; in test [5], 234 nM.
On to `CNC(=O)c1ccccc1Nc1nc(Nc2ccc(N3CCN(C(=O)N[C@H]4CC[C@@H](N(CCC#Cc5ccc6c(c5)CN(C5CCC(=O)NC5=O)C6=O)C(=O)OC(C)C(C)SSC[C@@H](NC(=O)CC[C@@H](NC(=O)c5ccc(NCc6cnc7nc(N)[nH]c(=O)c7n6)cc5)C(=O)O)C(=O)N[C@H](Cc5ccccc5)C(=O)N[C@H]5CSSC[C@@H](C(=O)N[C@H](CO)[C@@H](C)O)NC(=O)[C@H]([C@@H](C)O)NC(=O)[C@H](CCCCN)NC(=O)[C@@H](Cc6c[nH]c7ccccc67)NC(=O)[C@H](Cc6ccccc6)NC5=O)CC4)CC3)cc2)ncc1Cl` (stereo partly drawn) [UB-181267], for which the EC50 is over 1000 nM in test [1]; over 1000 nM in test [2]; 168 nM in test [3]; over 1000 nM in test [4]; 519 nM in test [5].
`CC[C@@H]1C(=O)N(C)c2cnc(Nc3ccc(-c4cn([C@H]5CC[C@@H](N(CCOCCC#Cc6cccc7c6CN(C6CCC(=O)NC6=O)C7=O)C(=O)OC(C)C(C)SSC[C@H](NC(=O)CC[C@H](NC(=O)c6ccc(NCc7cnc8nc(N)[nH]c(=O)c8n7)cc6)C(=O)O)C(=O)N[C@H](Cc6ccccc6)C(=O)N[C@H]6CSSC[C@@H](C(=O)N[C@H](CO)[C@@H](C)O)NC(=O)[C@H]([C@@H](C)O)NC(=O)[C@H](CCCCN)NC(=O)[C@@H](Cc7c[nH]c8ccccc78)NC(=O)[C@H](Cc7ccccc7)NC6=O)CC5)nn4)cc3OC)nc2N1C1CCCC1` (stereo partly drawn) [UB-181268]: the EC50 in test [1], in test [2], in test [3], in test [4] and in test [5] was over 1000 nM throughout.
Consider `CNC(=O)c1ccccc1Nc1nc(Nc2ccc(N3CCC(NCC#Cc4ccc5c(c4)CN(C4CCC(=O)NC4=O)C5=O)CC3)cc2)ncc1Cl` (stereo not drawn) [UB-181269], for which the 50% effective concentration (EC50) in test [1] (Homo sapiens) was 35.5 nM; in test [2] (Homo sapiens, 72 h), 28.8 nM; in test [3] (Homo sapiens, NCI-H82, 72 h), 11.6 nM; in test [4] (Homo sapiens, NCI-H69) it was over 1000 nM; in test [5] (Homo sapiens, COLO 205, 72 h), 10.7 nM.
The like results for `NC(=O)c1ccccc1Nc1nc(Nc2ccc(N3CCN(C(=O)N[C@H]4CC[C@@H](NC5CN(CC#Cc6ccc7c(c6)CN(C6CCC(=O)NC6=O)C7=O)C5)CC4)CC3)cc2)ncc1Cl` (stereo partly drawn) [UB-181270] were, in that order, 951 nM, 258 nM, 147 nM, 454 nM and 218 nM.
The like results for `CNC(=O)c1ccccc1Nc1nc(Nc2ccc(N3CCN(C(=O)CNCCC#Cc4ccc5c(c4)CN(C4CCC(=O)NC4=O)C5=O)CC3)cc2)ncc1Cl` (stereo not drawn) [UB-181272] were, in that order, 332 nM, 23.1 nM, 19.1 nM, over 1000 nM and 21.1 nM.
The like results for `NC(=O)c1ccccc1Nc1nc(Nc2ccc(N3CCN(C(=O)CNCCC#Cc4ccc5c(c4)CN(C4CCC(=O)NC4=O)C5=O)CC3)cc2)ncc1Cl` (stereo not drawn) [UB-181273] were, in that order, 56.2 nM, over 1000 nM, 21.6 nM, 375 nM and 21.4 nM.
Consider `NC(=O)c1ccccc1Nc1nc(Nc2ccc(N3CCN(C(=O)NC4CCN(CCNCCC#Cc5ccc6c(c5)CN(C5CCC(=O)NC5=O)C6=O)CC4)CC3)cc2)ncc1Cl` (stereo not drawn) [UB-181274], for which the EC50 is 522 nM in test [1] (Homo sapiens); 18.2 nM in test [2] (Homo sapiens, 72 h); 27.7 nM in test [3] (Homo sapiens, NCI-H82, 72 h); over 1000 nM in test [4] (Homo sapiens, NCI-H69); 49.4 nM in test [5] (Homo sapiens, COLO 205, 72 h).
Turning to `CC(OC(=O)N(CCC#Cc1ccc2c(c1)CN(C1CCC(=O)NC1=O)C2=O)C1CCC(NC(=O)N2CCN(c3ccc(Nc4ncc(Cl)c(Nc5ccccc5C(N)=O)n4)cc3)CC2)CC1)C(C)SSC[C@H](N)C(=O)N[C@H](Cc1ccccc1)C(=O)N[C@H]1CSSC[C@@H](C(=O)N[C@H](CO)[C@@H](C)O)NC(=O)[C@H]([C@@H](C)O)NC(=O)[C@H](CCCCN)NC(=O)[C@@H](Cc2c[nH]c3ccccc23)NC(=O)[C@H](Cc2ccccc2)NC1=O` (stereo partly drawn) [UB-181275], the EC50 in test [1] is 968 nM; in test [2] it was over 1000 nM; in test [3] it was 740 nM; in test [4] it was over 1000 nM; in test [5] it was 442 nM.
Regarding `NC(=O)c1ccccc1Nc1nc(Nc2ccc(C3CCN(C(=O)N[C@H]4C[C@@H](NCCC#Cc5ccc6c(c5)CN(C5CCC(=O)NC5=O)C6=O)C4)CC3)cc2)ncc1Cl` (stereo partly drawn) [UB-181279], the EC50 in test [1] (Homo sapiens) was 415 nM; in test [2] (Homo sapiens, 72 h) it was over 1000 nM; in test [3] (Homo sapiens, NCI-H82, 72 h) it was 24.9 nM; in test [4] (Homo sapiens, NCI-H69), over 1000 nM; in test [5] (Homo sapiens, COLO 205, 72 h), 65.2 nM.
As for `CC(OC(=O)N(CCC#Cc1ccc2c(c1)CN(C1CCC(=O)NC1=O)C2=O)C1CCC(NC(=O)N2CCN(c3ccc(Nc4ncc(Cl)c(Nc5ccccc5C(N)=O)n4)cc3)CC2)CC1)C(C)SSC[C@H](NC(=O)CCOCCOCCOCCOCCOCCOCCOCCOCCNC(=O)CC[C@H](NC(=O)c1ccc(NCc2cnc3nc(N)[nH]c(=O)c3n2)cc1)C(=O)O)C(=O)N[C@H](Cc1ccccc1)C(=O)N[C@H]1CSSC[C@@H](C(=O)N[C@H](CO)[C@@H](C)O)NC(=O)[C@H]([C@@H](C)O)NC(=O)[C@H](CCCCN)CC(=O)[C@@H](Cc2c[nH]c3ccccc23)NC(=O)[C@H](Cc2ccccc2)NC1=O` (stereo partly drawn) [UB-181280], the 50% effective concentration (EC50) in test [1] is over 1000 nM; in test [2], over 1000 nM; in test [3], 647 nM; in test [4] it was over 1000 nM; in test [5] it was 1.9 nM.
With `C[C@H](NC(=O)CCCCCN1C(=O)CC(SC[C@H](N)C(=O)N[C@@H](Cc2ccccc2)C(=O)N[C@H]2CSSC[C@@H](C(=O)N[C@H](CO)[C@@H](C)O)NC(=O)[C@H]([C@@H](C)O)NC(=O)[C@H](CCCCN)NC(=O)[C@@H](Cc3c[nH]c4ccccc34)NC(=O)[C@H](Cc3ccccc3)NC2=O)C1=O)C(=O)N[C@@H](C)C(=O)N[C@@H](CC(N)=O)C(=O)Nc1ccc(COC(=O)N(CCC#Cc2ccc3c(c2)CN(C2CCC(=O)NC2=O)C3=O)C2CCC(NC(=O)N3CCN(c4ccc(Nc5ncc(Cl)c(Nc6ccccc6C(N)=O)n5)cc4)CC3)CC2)cc1` (stereo partly drawn) [UB-181285], the half-maximal effective concentration (EC50) was 528 nM in test [1]; 50 nM in test [2]; 125 nM in test [3]; over 1000 nM in test [4]; 62.1 nM in test [5].
